In patent publication US20200037600A1, “MESOIONIC IMIDAZOPYRIDINES AS INSECTICIDES” (Bayer Aktiengesellschaft, priority 2017, published 2020):

Columns and labels:
Assay type in all cases: in vivo
[1] = system: Myzus persicae; assay: Myzus persicae oral test; conditions: after 5 days
Experimental: Solvent: 100 parts by weight of acetone
To produce a suitable active compound formulation, 1 part by weight of active compound is dissolved with the stated parts by weight of solvent and made up to the desired concentration with water.
50 μl of the active compound formulation are transferred into microtitre plates and made up to a final volume of 200 μl with 150 μl of IPL41 insect medium (33%+15% sugar). Subsequently, the plates are sealed with parafilm, which a mixed population of green peach aphids (Myzus persicae) within a second microtitre plate is able to puncture and imbibe the solution.
(§1) After 5 days, the efficacy in % is determined. 100% means that all the aphids have been killed; 0% means that no aphids have been killed.

[2] = system: Diabrotica balteata; assay: Diabrotica balteata spray test; conditions: application rate 160 μg/well, beetle larvae on germinated wheat grains, after 7 days
Experimental: Diabrotica balteata—Spray Test
(§2) Solvent: 78 parts by weight of acetone • • 1.5 parts by weight of dimethylformamide
(§3) Emulsifier: alkylaryl polyglycol ether
(§4) To produce a suitable active compound formulation, 1 part by weight of active compound is dissolved with the specified parts by weight of solvent and made up to the desired concentration with water containing an emulsifier concentration of 1000 ppm. To produce further test concentrations, the formulation is diluted with emulsifier-containing water.
Pre-swollen wheat grains (Triticum aestivum) are incubated in a multiwell plate filled with agar and a little water for one day (5 seed grains per well). The germinated wheat grains are sprayed with an active compound preparation of the desired concentration. Subsequently, each cavity is infected with 10-20 beetle larvae of Diabrotica balteata.
After 7 days, the efficacy in % is determined. 100% means that all maize plants have grown as in the untreated, uninfected control; 0% means that no maize plant has grown.

[3] = system: Myzus persicae; assay: Myzus persicae spray test; conditions: application rate 500 g/ha, Chinese cabbage leaf discs, after 5 days
Experimental: Myzus persicae—Spray Test
as §2, §3, §4
Discs of Chinese cabbage leaves (Brassica pekinensis) infested by all stages of the green peach aphid (Myzus persicae) are sprayed with an active compound formulation of the desired concentration.
as §1

## O=C(OCc1ccccc1)C(=O)c1c([O-])[n+]2ccccc2n1Cc1cnc(Cl)s1 [Example I-053]
[1]; application rate 4 ppm
  efficacy: 100%

## Cc1ccc[n+]2c([O-])c(C(=O)C(=O)OCC3CC3)n(Cc3cnc(Cl)s3)c12 [Example I-047]
[2]; Diabrotica balteata, 168 h, read-out: efficacy
  pest or weed control at 160 µg/disc, 160 µg/well: 100%
[1]; Myzus persicae, po, 120 h, application rate 4 ppm, read-out: efficacy
  pest or weed control at 4 ppm: 100%
[3]; Myzus persicae, foliar, 120 h, read-out: efficacy
  pest or weed control at 500 g/ha: 90%

## O=C(OCCc1ccccc1)C(=O)c1c([O-])[n+]2ccccc2n1Cc1cnc(Cl)s1 [Example I-052]
[1]; application rate 4 ppm
  efficacy: 100%

## O=C(c1ccc(Cl)cc1)c1c([O-])[n+]2ccccc2n1Cc1cnc(Cl)s1 [Example I-030]
[2]
  efficacy: 100%
[1]; application rate 4 ppm
  efficacy: 100%

## O=C(c1c([O-])[n+]2ccccc2n1Cc1ccc(Cl)nc1)C(F)(F)F [Example I-002]
[2]
  efficacy: 100%
[1]; application rate 4 ppm
  efficacy: 100%
[1]; application rate 20 ppm
  efficacy: 100%
[3]
  efficacy: 100%

## CCC(=O)c1c([O-])[n+]2ccccc2n1Cc1cnc(Cl)s1 [Example I-014]
[2]
  efficacy: 80%
[1]; application rate 4 ppm
  efficacy: 100%

## O=C(OCCC(F)(F)F)C(=O)c1c([O-])[n+]2ccccc2n1Cc1cnc(Cl)s1 [Example I-054]
[1]; application rate 4 ppm
  efficacy: 100%
[3]
  efficacy: 70%

## O=C(NCC1CC1)c1c([O-])[n+]2ccccc2n1Cc1cnc(Cl)s1 [Example I-016]
[2]
  efficacy: 100%
[1]; application rate 4 ppm
  efficacy: 90%

## O=C(c1c([O-])[n+]2ccccc2n1Cc1cncnc1)C(F)(F)F [Example I-012]
[1]; application rate 4 ppm
  efficacy: 100%
[1]; application rate 20 ppm
  efficacy: 100%

## O=C(OCC(F)F)C(=O)c1c([O-])[n+]2ccccc2n1Cc1cnc(Cl)s1 [Example I-051]
[1]; application rate 4 ppm
  efficacy: 100%
[3]
  efficacy: 90%

## O=C(NCc1ccccc1)c1c([O-])[n+]2ccccc2n1Cc1cnc(Cl)s1 [Example I-022]
[2]
  efficacy: 100%

## O=C(c1c([O-])[n+]2ccccc2n1Cc1cnc(Cl)s1)C1CC1 [Example I-031]
[2]
  efficacy: 100%
[1]; application rate 4 ppm
  efficacy: 90%

## C#CCOC(=O)C(=O)c1c([O-])[n+]2ccccc2n1Cc1cnc(Cl)s1 [Example I-055]
[1]; application rate 4 ppm
  efficacy: 100%
[3]
  efficacy: 90%

## COCC(=O)c1c([O-])[n+]2ccccc2n1Cc1ccc(Cl)nc1 [Example I-009]
[1]; application rate 4 ppm
  efficacy: 100%
[1]; application rate 20 ppm
  efficacy: 100%

## O=C(CCl)c1c([O-])[n+]2ccccc2n1Cc1ccc(Cl)nc1 [Example I-001]
[1]; application rate 20 ppm
  efficacy: 100%

## O=C(Cn1cc(Cl)cn1)c1c([O-])[n+]2ccccc2n1Cc1ccc(Cl)nc1 [Example I-006]
[1]; application rate 20 ppm
  efficacy: 100%

## O=C(CBr)c1c([O-])[n+]2ccccc2n1Cc1cnc(Cl)s1 [Example I-020]
[1]; application rate 4 ppm
  efficacy: 100%
[3]
  efficacy: 90%

## O=C(c1cccc(C(F)(F)F)c1)c1c([O-])[n+]2ccccc2n1Cc1cncnc1 [Example I-049]
[1]; application rate 4 ppm
  efficacy: 100%
[3]
  efficacy: 90%

## O=C(OCc1cccc(Cl)n1)C(=O)c1c([O-])[n+]2ccccc2n1Cc1cnc(Cl)s1 [Example I-042]
[3]
  efficacy: 100%

## O=C(OCC(F)(F)F)C(=O)c1c([O-])[n+]2ccccc2n1Cc1cnc(Cl)s1 [Example I-036]
[1]; application rate 4 ppm
  efficacy: 100%
[3]
  efficacy: 90%

## CNC(=O)c1c([O-])[n+]2ccccc2n1Cc1cnc(Cl)s1 [Example I-017]
[2]
  efficacy: 100%
[1]; application rate 4 ppm
  efficacy: 100%

## CC(C)=CCOC(=O)C(=O)c1c([O-])[n+]2ccccc2n1Cc1cnc(Cl)s1 [Example I-057]
[1]; application rate 4 ppm
  efficacy: 100%
[3]
  efficacy: 90%

## CC(C)(C)OC(=O)C(=O)c1c([O-])[n+]2ccccc2n1Cc1cnc(Cl)s1 [Example I-066]
[1]; application rate 4 ppm
  efficacy: 90%
[3]
  efficacy: 90%

## CC(=O)c1c([O-])[n+]2ccccc2n1Cc1ccc(Cl)nc1 [Example I-003]
[1]; application rate 4 ppm
  efficacy: 90%
[1]; application rate 20 ppm
  efficacy: 100%

## COC(=O)C(=O)c1c([O-])[n+]2ccccc2n1Cc1cnc(Cl)s1 [Example I-032]
[1]; application rate 4 ppm
  efficacy: 100%
[3]
  efficacy: 100%
